What was measured:
Assay in all cases: MIC of compounds alone and combined with antibacterials, broth microdilution (CLSI)
Assay type in all cases: cell-based
[1] = tested on: Enterobacter aerogenes (EAE) isolates; conditions: for MIC: alone; for MIC ATB in combination: AF1 @ 4 μg/mL
How it was run: (§1)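 First, log-phase suspensions are brought to a final 5·10^5 CFU/mL in cation-adjusted Mueller-Hinton broth. Then plates with compound, antibacterial, or both incubate 16-20 h at 35° C under ambient air. Finally, visual inspection gives the lowest growth-preventing concentration for each agent.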

[2] = tested on: Enterobacter cloacae (ECL) isolates
How it was run: as §1

[3] = tested on: Escherichia coli (ECO) isolates; conditions: for MIC: alone; for MIC ATB in combination: AF1 @ 4 μg/mL
How it was run: as §1

## NC(=O)[C@@H]1CC[C@@H]2CN1C(=O)N2OC(F)(F)C(=O)[O-].[Na+] [EA1]
[1]; EAE 49469
  MIC: >32 µg/mL
[1]; EAE 200261
  MIC: >32 µg/mL
[1]; EAE UFR199
  MIC: 128 µg/mL
[1]; EAE UFR201
  MIC: >32 µg/mL
[1]; EAE UFR202
  MIC: >32 µg/mL
[1]; EAE UFR213
  MIC: >32 µg/mL
[2]; ECL 2185D, alone
  MIC: 16 µg/mL
[2]; ECL 190310, alone
  MIC: 32 µg/mL
[2]; ECL 190408, alone
  MIC: >128 µg/mL
[2]; ECL 200138, alone
  MIC: >32 µg/mL
[2]; ECL 200322, alone
  MIC: 16 µg/mL
[2]; ECL 260033, alone
  MIC: 16 µg/mL
[2]; ECL 260253, alone
  MIC: >32 µg/mL
[2]; ECL 260323, alone
  MIC: >32 µg/mL
[2]; ECL 260508, alone
  MIC: >32 µg/mL
[2]; ECL NEM146383, alone
  MIC: 32 µg/mL
[2]; ECL P99, alone
  MIC: 16 µg/mL
[2]; ECL UFR12, alone
  MIC: 32 µg/mL
[2]; ECL UFR13, alone
  MIC: 32 µg/mL
[2]; ECL UFR14, alone
  MIC: >32 µg/mL
[2]; ECL UFR60, alone
  MIC: 32 µg/mL
[2]; ECL UFR70, alone
  MIC: 32 µg/mL
[2]; ECL UFR84, alone
  MIC: >32 µg/mL
[2]; ECL UFR85, alone
  MIC: >32 µg/mL
[2]; ECL UFR194, alone
  MIC: >32 µg/mL
[2]; ECL UFR200, alone
  MIC: >32 µg/mL
[2]; strain ECL UFR195, compound alone
  MIC: >32 µg/mL
[2]; strain ECL UFR196, compound alone
  MIC: >32 µg/mL
[2]; strain ECL UFR197, compound alone
  MIC: 16 µg/mL
[2]; strain ECL UFR198, compound alone
  MIC: >32 µg/mL
[3]; ECO 4133
  MIC: 16 µg/mL
[3]; ECO 5302
  MIC: 16 µg/mL
[3]; ECO 131119
  MIC: 32 µg/mL
[3]; ECO 180070
  MIC: >32 µg/mL
[3]; ECO 190314
  MIC: >32 µg/mL
[3]; ECO 190317
  MIC: 16 µg/mL
[3]; ECO 190457
  MIC: 16 µg/mL
[3]; ECO 190549
  MIC: 16 µg/mL
[3]; ECO 200159
  MIC: 32 µg/mL
[3]; ECO 200259
  MIC: 16 µg/mL
[3]; ECO 200344
  MIC: >32 µg/mL
[3]; ECO 260096
  MIC: 16 µg/mL
[3]; ECO 260304
  MIC: 32 µg/mL
[3]; ECO 260508
  MIC: 16 µg/mL
[3]; ECO RGN238
  MIC: >32 µg/mL
[3]; ECO UFR15
  MIC: 32 µg/mL
[3]; ECO UFR16
  MIC: 16 µg/mL
[3]; ECO UFR17
  MIC: 16 µg/mL
[3]; ECO UFR18
  MIC: 16 µg/mL
[3]; ECO UFR19
  MIC: 16 µg/mL
[3]; ECO UFR20
  MIC: 64 µg/mL
[3]; ECO UFR61O
  MIC: 32 µg/mL
[3]; ECO UFR62
  MIC: 16 µg/mL
[3]; ECO UFR74
  MIC: >32 µg/mL
[3]; ECO UFR86
  MIC: 16 µg/mL
[3]; ECO UFR174
  MIC: 8 µg/mL
[3]; ECO UFR175
  MIC: 32 µg/mL
[3]; ECO UFR176
  MIC: 32 µg/mL
[3]; ECO UFR184
  MIC: 8 µg/mL
[3]; ECO UFR185
  MIC: 16 µg/mL
[3]; ECO UFR186
  MIC: >32 µg/mL
[3]; ECO UFR187
  MIC: >32 µg/mL
[3]; ECO UFR189
  MIC: 16 µg/mL
[3]; ECO UFR190
  MIC: 16 µg/mL
[3]; ECO UFR191
  MIC: 32 µg/mL
[3]; ECO UFR207
  MIC: 32 µg/mL
[3]; ECO UFR208
  MIC: >32 µg/mL
[3]; ECO UFR209
  MIC: 16 µg/mL
[3]; ECO UFR210
  MIC: 16 µg/mL
[3]; ECO UFR211
  MIC: >32 µg/mL
[3]; ECO UFR212
  MIC: 16 µg/mL
[3]; ECO UFR218
  MIC: 16 µg/mL

## COCC1=C(C(=O)O)N2C(=O)[C@@H](NC(=O)/C(=N\OC)c3csc(N)n3)[C@H]2SC1 [POD, Cefpodoxime]
[1]; EAE 49469
  MIC ATB in combination: 8 µg/mL
[1]; EAE 200261
  MIC ATB in combination: 4 µg/mL
[1]; EAE UFR199
  MIC ATB in combination: 1 µg/mL
[1]; EAE UFR201
  MIC ATB in combination: <=0.25 μg/mL
[1]; EAE UFR202
  MIC ATB in combination: 2 µg/mL
[1]; EAE UFR213
  MIC ATB in combination: 1 µg/mL
[2]; ECL 2185D, AF1 @ 4 μg/mL
  MIC ATB in combination: >128 µg/mL
[2]; ECL 190310, AF1 @ 4 μg/mL
  MIC ATB in combination: 64 µg/mL
[2]; ECL 190408, AF1 @ 4 μg/mL
  MIC ATB in combination: <=0.25 μg/mL
[2]; ECL 200138, AF1 @ 4 μg/mL
  MIC ATB in combination: 32 µg/mL
[2]; ECL 200322, AF1 @ 4 μg/mL
  MIC ATB in combination: 1 µg/mL
[2]; ECL 260033, AF1 @ 4 μg/mL
  MIC ATB in combination: 128 µg/mL
[2]; ECL 260253, AF1 @ 4 μg/mL
  MIC ATB in combination: 8 µg/mL
[2]; ECL 260323, AF1 @ 4 μg/mL
  MIC ATB in combination: 32 µg/mL
[2]; ECL 260508, AF1 @ 4 μg/mL
  MIC ATB in combination: 1 µg/mL
[2]; ECL NEM146383, AF1 @ 4 μg/mL
  MIC ATB in combination: 16 µg/mL
[2]; ECL P99, AF1 @ 4 μg/mL
  MIC ATB in combination: 16 µg/mL
[2]; ECL UFR12, AF1 @ 4 μg/mL
  MIC ATB in combination: 1 µg/mL
[2]; ECL UFR13, AF1 @ 4 μg/mL
  MIC ATB in combination: 8 µg/mL
[2]; ECL UFR14, AF1 @ 4 μg/mL
  MIC ATB in combination: 8 µg/mL
[2]; ECL UFR60, AF1 @ 4 μg/mL
  MIC ATB in combination: 1 µg/mL
[2]; ECL UFR70, AF1 @ 4 μg/mL
  MIC ATB in combination: 8 µg/mL
[2]; ECL UFR84, AF1 @ 4 μg/mL
  MIC ATB in combination: 32 µg/mL
[2]; ECL UFR85, AF1 @ 4 μg/mL
  MIC ATB in combination: 4 µg/mL
[2]; ECL UFR194, AF1 @ 4 μg/mL
  MIC ATB in combination: 1 µg/mL
[2]; ECL UFR200, AF1 @ 4 μg/mL
  MIC ATB in combination: 1 µg/mL
[2]; strain ECL UFR195, antibacterial combined with AF1 @ 4 μg/mL
  MIC ATB in combination: 1 µg/mL
[2]; strain ECL UFR196, antibacterial combined with AF1 @ 4 μg/mL
  MIC ATB in combination: 2 µg/mL
[2]; strain ECL UFR197, antibacterial combined with AF1 @ 4 μg/mL
  MIC ATB in combination: 8 µg/mL
[2]; strain ECL UFR198, antibacterial combined with AF1 @ 4 μg/mL
  MIC ATB in combination: 8 µg/mL
[3]; ECO 4133
  MIC ATB in combination: <=0.25 μg/mL
[3]; ECO 5302
  MIC ATB in combination: <=0.25 μg/mL
[3]; ECO 131119
  MIC ATB in combination: <=0.25 μg/mL
[3]; ECO 180070
  MIC ATB in combination: <=0.25 μg/mL
[3]; ECO 190314
  MIC ATB in combination: <=0.25 μg/mL
[3]; ECO 190317
  MIC ATB in combination: <=0.25 μg/mL
[3]; ECO 190457
  MIC ATB in combination: <=0.25 μg/mL
[3]; ECO 190549
  MIC ATB in combination: <=0.25 μg/mL
[3]; ECO 200159
  MIC ATB in combination: <=0.25 μg/mL
[3]; ECO 200259
  MIC ATB in combination: <=0.25 μg/mL
[3]; ECO 200344
  MIC ATB in combination: <=0.25 μg/mL
[3]; ECO 260096
  MIC ATB in combination: <=0.25 μg/mL
[3]; ECO 260304
  MIC ATB in combination: <=0.25 μg/mL
[3]; ECO 260508
  MIC ATB in combination: <=0.25 μg/mL
[3]; ECO RGN238
  MIC ATB in combination: <=0.25 μg/mL
[3]; ECO UFR15
  MIC ATB in combination: <=0.25 μg/mL
[3]; ECO UFR16
  MIC ATB in combination: 1 µg/mL
[3]; ECO UFR17
  MIC ATB in combination: >128 µg/mL
[3]; ECO UFR18
  MIC ATB in combination: 8 µg/mL
[3]; ECO UFR19
  MIC ATB in combination: 4 µg/mL
[3]; ECO UFR20
  MIC ATB in combination: 4 µg/mL
[3]; ECO UFR61O
  MIC ATB in combination: 0.5 µg/mL
[3]; ECO UFR62
  MIC ATB in combination: 0.5 µg/mL
[3]; ECO UFR74
  MIC ATB in combination: 2 µg/mL
[3]; ECO UFR86
  MIC ATB in combination: 1 µg/mL
[3]; ECO UFR174
  MIC ATB in combination: <=0.25 μg/mL
[3]; ECO UFR175
  MIC ATB in combination: 1 µg/mL
[3]; ECO UFR176
  MIC ATB in combination: <=0.25 μg/mL
[3]; ECO UFR184
  MIC ATB in combination: 4 µg/mL
[3]; ECO UFR185
  MIC ATB in combination: 32 µg/mL
[3]; ECO UFR186
  MIC ATB in combination: 1 µg/mL
[3]; ECO UFR187
  MIC ATB in combination: 0.5 µg/mL
[3]; ECO UFR189
  MIC ATB in combination: <=0.25 μg/mL
[3]; ECO UFR190
  MIC ATB in combination: <=0.25 μg/mL
[3]; ECO UFR191
  MIC ATB in combination: <=0.25 μg/mL
[3]; ECO UFR207
  MIC ATB in combination: <=0.25 μg/mL
[3]; ECO UFR208
  MIC ATB in combination: 64 µg/mL
[3]; ECO UFR209
  MIC ATB in combination: <=0.25 μg/mL
[3]; ECO UFR210
  MIC ATB in combination: <=0.25 μg/mL
[3]; ECO UFR211
  MIC ATB in combination: <=0.25 μg/mL
[3]; ECO UFR212
  MIC ATB in combination: 32 µg/mL
[3]; ECO UFR218
  MIC ATB in combination: <=0.25 μg/mL
